# In patent publication EP4745130A1, “CRYSTAL FORMS OF TUBULIN-SRC DUAL-TARGETING INHIBITOR, PREPARATION METHOD THEREFOR AND USE THEREOF” (Hubei Bio-Pharmaceutical Industrial Technological Institute …, priority 2023, dated 2025):
# Where two headings read alike, the source gives them in different places.
# What was measured:
# [1] = Thermodynamic solubility test; assay type: physicochemical; details: for solubility: thermodynamic from solid, 4 mg/mL, overnight at room temperature
# Experimental: Phosphate buffer saline (PBS) with a pH of 7.4, FeSSIF solution with a pH of 6.5, and FaSSGF solution with a pH of 1.6 were prepared. The compound was accurately weighed and added to prepared phosphate buffer saline with a pH of 7.4, FeSSIF solution with a pH of 6.5, and FaSSGF solution with a pH of 1.6 to prepare into a solution with a concentration of 4 mg/mL. The solution was shaken at a speed of 1000 rpm for 1 hour, and then incubated overnight at room temperature. The incubated solution was centrifuged at 12,000 rpm for 10 minutes to remove undissolved particles, and the supernatant was transferred to a new centrifuge tube. After the supernatant was appropriately diluted, an acetonitrile solution containing internal standard was added, and a standard curve prepared with the same matrix was used for quantification. Table 42: Thermodynamic solubility test results
# [2] = test system: Human cutaneous squamous cell carcinoma cell A-431; assay: Cell proliferation inhibition test, A-431; assay type: cell-based; details: A-431, 96 h, 4 days incubation
# Experimental: Human cutaneous squamous cell carcinoma cell A-431 (ATCC, CRL-1555) and actinic keratosis patient-derived cell HT 297.T (ATCC, CRL-7782) proliferation assays were used to detect the inhibitory effect of small molecular compounds on cell proliferation.
# A-431 cells and HT 297.T cells were cultured in DMEM medium containing 10% fetal bovine serum and grown at 37°C in a 5% CO2 incubator. Cells on logarithmic phase were seeded into a 96-well cell culture plate at 1000 cells/well, 100 µL per well, and then cultured overnight at 37°C in a 5% CO2 incubator. The next day, 100 µL of gradient-diluted 2× test compound solution was added to each well, with DMSO serving as a positive control, and 10 µM staurosporine (Aladdin, S102392) was set as a negative control group. After the addition of the compounds, the culture plate was incubated for another 4 days at 37°C in a 5% CO2 incubator. After incubation, the Steady-Glo® luciferase assay system (Promega, G9243) was used according to the supplier's instructions to measure the fluorescence signal value on the Envision 2104 Multilabel Reader. The inhibition rate was calculated by the following formula, then the curve was plotted with the Log value of the inhibitor concentration as the X-axis and the inhibition rate as the Y-axis, and the IC50 was calculated using Graphpad 8.0. [formula] […]
# tubulin = molecular target: T1, tubulin (Sus scrofa, UniProt P02550+P02554); assay: Inhibition test of tubulin monomer polymerization (Tubulin polymerization assay kit, fluorescence); assay type: biochemical
# T1 construct: purchased cytoskeleton BK011P
# T1 sequence (P02550 whole entry): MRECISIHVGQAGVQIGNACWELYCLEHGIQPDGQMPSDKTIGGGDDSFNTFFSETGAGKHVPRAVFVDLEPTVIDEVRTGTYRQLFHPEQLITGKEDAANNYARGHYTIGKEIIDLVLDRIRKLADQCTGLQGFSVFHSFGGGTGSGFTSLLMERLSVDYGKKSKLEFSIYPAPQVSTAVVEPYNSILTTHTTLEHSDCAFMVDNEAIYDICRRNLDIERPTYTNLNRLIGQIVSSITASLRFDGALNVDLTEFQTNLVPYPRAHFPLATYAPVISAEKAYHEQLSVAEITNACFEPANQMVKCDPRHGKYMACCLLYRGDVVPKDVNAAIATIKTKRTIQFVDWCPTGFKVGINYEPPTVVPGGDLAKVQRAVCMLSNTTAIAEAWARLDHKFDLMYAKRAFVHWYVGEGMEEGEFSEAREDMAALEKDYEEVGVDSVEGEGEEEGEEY
# T1 sequence (P02554 whole entry): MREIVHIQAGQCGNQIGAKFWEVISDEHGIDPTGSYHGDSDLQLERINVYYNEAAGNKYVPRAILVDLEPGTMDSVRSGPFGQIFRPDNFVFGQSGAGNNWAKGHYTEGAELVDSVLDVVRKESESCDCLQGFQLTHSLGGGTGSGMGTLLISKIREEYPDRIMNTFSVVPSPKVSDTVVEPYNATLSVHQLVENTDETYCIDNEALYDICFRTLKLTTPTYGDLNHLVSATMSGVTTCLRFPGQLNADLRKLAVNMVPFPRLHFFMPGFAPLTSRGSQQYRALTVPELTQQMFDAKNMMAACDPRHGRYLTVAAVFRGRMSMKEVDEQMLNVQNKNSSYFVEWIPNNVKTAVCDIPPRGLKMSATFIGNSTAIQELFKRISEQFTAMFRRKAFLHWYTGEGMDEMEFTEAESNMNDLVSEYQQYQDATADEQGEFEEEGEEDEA
# Experimental: Tubulin polymerization assay kit (cytoskeleton, Cat. # BK011P) was used to conduct the compound inhibition test of tubulin monomer polymerization.
# Before the test, the 96-well plate (Corning Costar, Cat. # 3686) supplied with the kit was first placed in a microplate reader (MD, SpectraMax M5) and heated to 37°C, maintained for 10 minutes. The 96-well plate was then removed, and 5 µL of 12.5 µM compound solution or blank solution was added thereto. The 96-well plate was then placed back into the microplate reader and incubated at 37°C for 1 minute to heat the compound solution to 37°C. The 96-well plate was removed and 50 µL of reaction mixture prepared according to the supplier's instructions was quickly added to each well, completing the sample addition within 1 minute to avoid the formation of bubbles. The 96-well plate was then immediately placed back into the microplate reader, shaken for 5 seconds, and using the Kinetic mode, continuous detection was carried out at 37°C for 30 to 60 minutes under the conditions of excitation light at 360 nm and emission light at 420 nm, with detection every 30 seconds. Taking the detection time as the X-axis and the fluorescence signal value as the Y-axis, the tubulin monomer polymerization curve was obtained. As shown in FIG. 66 and Table 40, the larger the Vmax value and the higher the maximum fluorescence signal value of the polymerization curve, the lower the inhibitory efficiency of the compound.
smiles,measurement,setting,value
"Cc1cc(OCCN2C[C@H]3COC[C@H]3C2)ccc1-c1ccc(CC(=O)NCc2ccccc2)nc1 [Compound of Formula I, N-benzyl-2-(5-(2-methyl-4-(2-((3aR,6aS)-tetrahydro-1H-furo[3,4-c]pyrrol-5(3H)-yl)ethoxy)phenyl)pyridin-2-yl)acetamide]",solubility,"[1]; FeSSIF solution, FeSSIF (pH 6.5), read-out: Solubility (µg/mL) FeSSIF (pH 6.5)",650 µg/mL
same,thermodynamic solubility,"[1]; in words, under neutral conditions, compared with the control compound",greater thermodynamic solubility
same,solubility,"[1]; phosphate buffer saline (PBS), aqueous buffer, PBS (pH 7.4), read-out: Solubility (µg/mL) PBS (pH 7.4)",101 µg/mL
same,IC50,[2],0.0226 µM
same,Maximum signal value,"tubulin; 5 µL of 12.5 µM compound solution, fluorescence ex 360 nm / em 420 nm, 37°C, larger value = lower inhibitory efficiency",478
same,Vmax value and maximum fluorescence signal value of the polymerization curve,tubulin; in words,significantly smaller
